Source: patent US20230143604A1, “QW DOSING OF GIP RECEPTOR AGONIST PEPTIDE COMPOUNDS AND USES THEREOF” (TAKEDA PHARMACEUTICAL COMPANY LIMITED, priority 2020, published 2023)
Starred links: 1 amine or outer side, 2 acyl side, 3 side chain; linkers in the order of their positions; H or OH if unused. Positions of bridges follow the written chain, without caps; N, C: chain ends. Non-standard residues stand in square brackets, D forms with d. Residues, ends and D or L forms follow the SMILES beside them. Groups on a side chain read outwards from the residue. Chains are numbered I, II in the order given. *: point of attachment. C18 diacid = O=C(O)CCCCCCCCCCCCCCCCC(=O)*; C17 diacid = O=C(O)CCCCCCCCCCCCCCCC(=O)*; γGlu = O=C(O)[C@H](CCC(=O)[*:2])N[*:1]; NMeY = CN[C@@H](Cc1ccc(O)cc1)C(=O)O; AEEA = NCCOCCOCC(=O)O; Aib = CC(C)(N)C(=O)O

Assay: physchem
In short: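 Solubility at pH 7.4 determined by stepwise addition of 200 mM phosphate buffer in 100 μL increments to 3 mg peptide, mixing briefly each time, until no insoluble material remained, then measured by liquid chromatography.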

[1] = pH 7.4, aqueous buffer, pH 7.4 Phosphate Buffer - Solubility, 200 mM Phosphate buffer pH 7.4
[2] = pH 7.4, solubility in phosphate buffer at pH 7.4, 200 mM phosphate buffer pH 7.4

Row | SMILES | solubility (pH 7.4) | solubility (pH 7.4, aqueous buffer) | solubility [1] | solubility [2]
1 | CC[C@H](C)[C@H](NC(=O)[C@H](CO)NC(=O)[C@H](Cc1ccc(O)cc1)NC(=O)[C@H](CC(=O)O)NC(=O)[C@H](CO)NC(=O)[C@@H](NC(=O)[C@H](Cc1ccccc1)NC(=O)[C@@H](NC(=O)CNC(=O)[C@H](CCC(=O)O)NC(=O)C(C)(C)NC(=O)[C@@H](N)Cc1ccc(O)cc1)[C@@H](C)O)[C@@H](C)CC)C(=O)N[C@@H](C)C(=O)N[C@@H](CC(C)C)C(=O)N[C@@H](CC(=O)O)C(=O)N[C@@H](CCCCN)C(=O)NC(C)(C)C(=O)N[C@@H](C)C(=O)N[C@@H](CCC(N)=O)C(=O)N[C@@H](C)C(=O)N[C@@H](CCCCNC(=O)COCCOCCNC(=O)COCCOCCNC(=O)CC[C@H](NC(=O)CC[C@H](NC(=O)CCCCCCCCCCCCCCCC(=O)O)C(=O)O)C(=O)O)C(=O)N[C@@H](Cc1ccccc1)C(=O)N[C@H](C(=O)N[C@@H](CCC(=O)O)C(=O)N[C@@H](Cc1c[nH]c2ccccc12)C(=O)N[C@@H](CC(C)C)C(=O)N[C@@H](CC(C)C)C(=O)N[C@@H](C)C(=O)N[C@@H](CCC(N)=O)C(=O)N[C@@H](CCCNC(=N)N)C(=O)NCC(=O)O)C(C)C [Compound 131] (H-Y[Aib]EGTFISDYSIALDK[Aib]AQAK([AEEA-AEEA-γGlu-γGlu-C17 diacid])FVEWLLAQRG-OH) | ≥ 15 mg/mL | ≥ 30 mg/mL |  | 
2 | CC[C@H](C)[C@H](NC(=O)[C@H](CCCCN)NC(=O)[C@H](CC(=O)O)NC(=O)[C@H](CC(C)C)NC(=O)[C@H](C)NC(=O)[C@@H](NC(=O)[C@H](CO)NC(=O)[C@H](Cc1ccc(O)cc1)NC(=O)[C@H](CC(=O)O)NC(=O)[C@H](CO)NC(=O)[C@@H](NC(=O)[C@H](Cc1ccccc1)NC(=O)[C@@H](NC(=O)CNC(=O)[C@H](CCC(=O)O)NC(=O)C(C)(C)NC(=O)[C@@H](N)Cc1ccc(O)cc1)[C@@H](C)O)[C@@H](C)CC)[C@@H](C)CC)C(=O)N[C@@H](C)C(=O)N[C@@H](CCC(N)=O)C(=O)NC(C)(C)C(=O)N[C@@H](CCCCNC(=O)COCCOCCNC(=O)COCCOCCNC(=O)CC[C@H](NC(=O)CC[C@H](NC(=O)CCCCCCCCCCCCCCCC(=O)O)C(=O)O)C(=O)O)C(=O)N[C@@H](Cc1ccccc1)C(=O)N[C@H](C(=O)N[C@@H](CCC(=O)O)C(=O)N[C@@H](Cc1c[nH]c2ccccc12)C(=O)N[C@@H](CC(C)C)C(=O)N[C@@H](CC(C)C)C(=O)N[C@@H](C)C(=O)N[C@@H](CCC(N)=O)C(=O)N[C@@H](CCCNC(=N)N)C(=O)NCC(=O)O)C(C)C [Compound 132] (H-Y[Aib]EGTFISDYSIALDKIAQ[Aib]K([AEEA-AEEA-γGlu-γGlu-C17 diacid])FVEWLLAQRG-OH) | ≥ 15 mg/mL | ≥ 30 mg/mL |  | 
3 | CC[C@H](C)[C@H](NC(=O)[C@H](CO)NC(=O)[C@H](Cc1ccc(O)cc1)NC(=O)[C@H](CC(=O)O)NC(=O)[C@H](CO)NC(=O)[C@@H](NC(=O)[C@H](Cc1ccccc1)NC(=O)[C@@H](NC(=O)CNC(=O)[C@H](CCC(=O)O)NC(=O)C(C)(C)NC(=O)[C@@H](N)Cc1ccc(O)cc1)[C@@H](C)O)[C@@H](C)CC)C(=O)N[C@@H](C)C(=O)N[C@@H](CC(C)C)C(=O)N[C@@H](CC(=O)O)C(=O)N[C@@H](CCCCN)C(=O)N[C@@H](C)C(=O)N[C@@H](C)C(=O)N[C@@H](CCC(N)=O)C(=O)NC(C)(C)C(=O)N[C@@H](CCCCNC(=O)COCCOCCNC(=O)COCCOCCNC(=O)CC[C@H](NC(=O)CC[C@H](NC(=O)CCCCCCCCCCCCCCCC(=O)O)C(=O)O)C(=O)O)C(=O)N[C@@H](Cc1ccccc1)C(=O)N[C@H](C(=O)N[C@@H](CCC(=O)O)C(=O)N[C@@H](Cc1c[nH]c2ccccc12)C(=O)N[C@@H](CC(C)C)C(=O)N[C@@H](CC(C)C)C(=O)N[C@@H](C)C(=O)N[C@@H](CCC(N)=O)C(=O)N[C@@H](CCCNC(=N)N)C(=O)NCC(=O)O)C(C)C [Compound 133] (H-Y[Aib]EGTFISDYSIALDKAAQ[Aib]K([AEEA-AEEA-γGlu-γGlu-C17 diacid])FVEWLLAQRG-OH) | ≥ 15 mg/mL | ≥ 30 mg/mL |  | 
4 | CC[C@H](C)[C@H](NC(=O)[C@H](CCCCN)NC(=O)[C@H](CC(=O)O)NC(=O)[C@H](CC(C)C)NC(=O)[C@H](C)NC(=O)[C@@H](NC(=O)[C@H](CO)NC(=O)[C@H](Cc1ccc(O)cc1)NC(=O)[C@H](CC(=O)O)NC(=O)[C@H](CO)NC(=O)[C@@H](NC(=O)[C@H](Cc1ccccc1)NC(=O)[C@@H](NC(=O)CNC(=O)[C@H](CCC(=O)O)NC(=O)C(C)(C)NC(=O)[C@@H](N)Cc1ccc(O)cc1)[C@@H](C)O)[C@@H](C)CC)[C@@H](C)CC)C(=O)N[C@@H](C)C(=O)N[C@@H](CCC(N)=O)C(=O)N[C@@H](CCC(N)=O)C(=O)N[C@@H](CCCCNC(=O)COCCOCCNC(=O)COCCOCCNC(=O)CC[C@H](NC(=O)CC[C@H](NC(=O)CCCCCCCCCCCCCCCC(=O)O)C(=O)O)C(=O)O)C(=O)N[C@@H](Cc1ccccc1)C(=O)N[C@H](C(=O)N[C@@H](CCC(=O)O)C(=O)N[C@@H](Cc1c[nH]c2ccccc12)C(=O)N[C@@H](CC(C)C)C(=O)N[C@@H](CC(C)C)C(=O)N[C@@H](C)C(=O)N[C@@H](CCC(N)=O)C(=O)N[C@@H](CCCNC(=N)N)C(=O)N1CCC[C@H]1C(=O)N[C@@H](CO)C(=O)N[C@@H](CO)C(=O)NCC(=O)N[C@@H](C)C(=O)N1CCC[C@H]1C(=O)N1CCC[C@H]1C(=O)N1CCC[C@H]1C(=O)N[C@@H](CO)C(=O)O)C(C)C [Compound 134] (H-Y[Aib]EGTFISDYSIALDKIAQQK([AEEA-AEEA-γGlu-γGlu-C17 diacid])FVEWLLAQRPSSGAPPPS-OH) |  |  | ≥ 30 mg/mL | ≥ 15 mg/mL
5 | CC[C@H](C)[C@H](NC(=O)[C@H](CCCCN)NC(=O)[C@H](CC(=O)O)NC(=O)[C@H](CC(C)C)NC(=O)[C@H](C)NC(=O)[C@@H](NC(=O)[C@H](CO)NC(=O)[C@H](Cc1ccc(O)cc1)NC(=O)[C@H](CC(=O)O)NC(=O)[C@H](CO)NC(=O)[C@@H](NC(=O)[C@H](Cc1ccccc1)NC(=O)[C@@H](NC(=O)CNC(=O)[C@H](CCC(=O)O)NC(=O)C(C)(C)NC(=O)[C@@H](N)Cc1ccc(O)cc1)[C@@H](C)O)[C@@H](C)CC)[C@@H](C)CC)C(=O)N[C@@H](C)C(=O)N[C@@H](CCC(N)=O)C(=O)N[C@@H](CCCNC(=N)N)C(=O)N[C@@H](CCCCNC(=O)COCCOCCNC(=O)COCCOCCNC(=O)CC[C@H](NC(=O)CC[C@H](NC(=O)CCCCCCCCCCCCCCCC(=O)O)C(=O)O)C(=O)O)C(=O)N[C@@H](Cc1ccccc1)C(=O)N[C@H](C(=O)N[C@@H](CCC(=O)O)C(=O)N[C@@H](Cc1c[nH]c2ccccc12)C(=O)N[C@@H](CC(C)C)C(=O)N[C@@H](CC(C)C)C(=O)N[C@@H](C)C(=O)N[C@@H](CCC(N)=O)C(=O)N[C@@H](CCCNC(=N)N)C(=O)N1CCC[C@H]1C(=O)N[C@@H](CO)C(=O)N[C@@H](CO)C(=O)NCC(=O)N[C@@H](C)C(=O)N1CCC[C@H]1C(=O)N1CCC[C@H]1C(=O)N1CCC[C@H]1C(=O)N[C@@H](CO)C(=O)O)C(C)C [Compound 135] (H-Y[Aib]EGTFISDYSIALDKIAQRK([AEEA-AEEA-γGlu-γGlu-C17 diacid])FVEWLLAQRPSSGAPPPS-OH) |  |  | ≥ 30 mg/mL | ≥ 15 mg/mL
6 | CC[C@H](C)[C@H](NC(=O)[C@H](CO)NC(=O)[C@H](Cc1ccc(O)cc1)NC(=O)[C@H](CC(=O)O)NC(=O)[C@H](CO)NC(=O)[C@@H](NC(=O)[C@H](Cc1ccccc1)NC(=O)[C@@H](NC(=O)CNC(=O)[C@H](CCC(=O)O)NC(=O)C(C)(C)NC(=O)[C@H](Cc1ccc(O)cc1)NC)[C@@H](C)O)[C@@H](C)CC)C(=O)N[C@@H](C)C(=O)N[C@@H](CC(C)C)C(=O)N[C@@H](CC(=O)O)C(=O)N[C@@H](CCCNC(=N)N)C(=O)NC(C)(C)C(=O)N[C@@H](CCCCNC(=O)CNC(=O)CNC(=O)[C@@H]1CCCN1C(=O)[C@H](C)NC(=O)[C@@H]1CCCN1C(=O)[C@H](C)NC(=O)[C@@H]1CCCN1C(=O)CC[C@H](NC(=O)CCCCCCCCCCCCCCCCC(=O)O)C(=O)O)C(=O)N[C@@H](CCC(N)=O)C(=O)NC(C)(C)C(=O)N[C@@H](CC(=O)O)C(=O)N[C@@H](Cc1ccccc1)C(=O)N[C@H](C(=O)N[C@@H](CC(N)=O)C(=O)N[C@@H](Cc1c[nH]c2ccccc12)C(=O)N[C@@H](CC(C)C)C(=O)N[C@@H](CC(C)C)C(=O)N[C@@H](C)C(=O)N[C@@H](CCC(N)=O)C(=O)N[C@@H](CO)C(=O)N1CCC[C@H]1C(=O)NCC(=O)O)C(C)C [Compound 136] (I: H-[NMeY][Aib]EGTFISDYSIALDR[Aib]KQ[Aib]DFVNWLLAQSPG-OH / II: {C18 diacid-γGlu}-PAPAPGG; amide I:18-II:C) | ≥ 15 mg/mL | ≥ 30 mg/mL |  | 
7 | CC[C@H](C)[C@H](NC(=O)[C@H](CO)NC(=O)[C@H](Cc1ccc(O)cc1)NC(=O)[C@H](CC(=O)O)NC(=O)[C@H](CO)NC(=O)[C@@H](NC(=O)[C@H](Cc1ccccc1)NC(=O)[C@@H](NC(=O)CNC(=O)[C@H](CCC(=O)O)NC(=O)C(C)(C)NC(=O)[C@@H](N)Cc1ccc(O)cc1)[C@@H](C)O)[C@@H](C)CC)C(=O)N[C@@H](C)C(=O)N[C@@H](CC(C)C)C(=O)N[C@@H](CC(=O)O)C(=O)N[C@@H](CCCNC(=N)N)C(=O)NC(C)(C)C(=O)N[C@@H](C)C(=O)N[C@@H](CCC(N)=O)C(=O)NC(C)(C)C(=O)N[C@@H](CCCCNC(=O)COCCOCCNC(=O)COCCOCCNC(=O)CC[C@H](NC(=O)CC[C@H](NC(=O)CCCCCCCCCCCCCCCC(=O)O)C(=O)O)C(=O)O)C(=O)N[C@@H](Cc1ccccc1)C(=O)N[C@H](C(=O)N[C@@H](CC(N)=O)C(=O)N[C@@H](Cc1c[nH]c2ccccc12)C(=O)N[C@@H](CC(C)C)C(=O)N[C@@H](CC(C)C)C(=O)N[C@@H](C)C(=O)N[C@@H](CCC(N)=O)C(=O)N[C@@H](CCCNC(=N)N)C(=O)NCC(=O)O)C(C)C [Compound 140] (H-Y[Aib]EGTFISDYSIALDR[Aib]AQ[Aib]K([AEEA-AEEA-γGlu-γGlu-C17 diacid])FVNWLLAQRG-OH) | ≥ 15 mg/mL | ≥ 30 mg/mL |  | 
